Tests used:
[1] = system: Turnip (TP); test: Post-emergence herbicide test; format: in vivo, Brassica sp.; settings: Brassica rapa, post-emergence, 336 h, two weeks after treatment; for pest or weed control at 4483.4 g/ha: 4 lb/acre
Outline: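 A greenhouse post-emergence herbicide test on turnip. Seeds were sown on the surface of potting soil in 3' plastic pots, lightly covered with screened soil and watered from below. Planting was timed so seedlings had 1 or 2 true leaves above the cotyledons at spraying, done in a hood with a fixed nozzle. Control or injury was scored by eye after two weeks.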

[2] = system: Bean (BN); test: Post-emergence herbicide test; format: in vivo, Phaseolus vulgaris var. Black Valentine; settings: Phaseolus vulgaris, post-emergence, 336 h, two weeks after treatment; for pest or weed control at 4483.4 g/ha: 4 lb/acre
Outline: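 Snapbean (Phaseolus vulgaris var. Black Valentine) was tested post-emergence. Four seeds were sown in 3' plastic pots of potting soil at a depth equal to the seed diameter, then sub-irrigated in greenhouse trays. Planting dates were staggered so plants were sprayed once primary leaves had expanded, with the growing point at the primary leaf nodes.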

[3] = system: Barnyard grass (BG); test: Post-emergence herbicide test; format: in vivo; settings: Echinochloa crus-galli, 336 h, two weeks after treatment
Outline: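 Greenhouse pot-grown barnyard grass seedlings sprayed post-emergence at 8 lbs active compound per acre (some at 4 lbs/acre) in 38 gallons per acre, then sub-irrigated. Injury or control rated visually two weeks after treatment.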

[4] = system: Crabgrass (CG); test: Post-emergence herbicide test; format: in vivo, Digitaria sanquinalis; settings: Digitaria sanguinalis, post-emergence, 336 h, two weeks after treatment; for pest or weed control at 4483.4 g/ha: 4 lb/acre
Outline: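 Crabgrass (Digitaria sanquinalis) was surface seeded individually in 3' plastic pots of potting soil, covered with screened soil, and watered by sub-irrigation in greenhouse trays. Planting was staggered so seedlings reached the target stage together. Post-emergence sprays were applied in a hood with a removable belt and fixed nozzle, and control was visually rated two weeks after treatment.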

[5] = system: Cotton (CT); test: Post-emergence herbicide test; format: in vivo, Gossypium hirsutum var. DPL smooth leaf; settings: Gossypium hirsutum, post-emergence, 336 h, two weeks after treatment; for pest or weed control at 4483.4 g/ha: 4 lb/acre
Outline: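 Cotton (Gossypium hirsutum var. DPL smooth leaf) was grown in 3' plastic pots of potting soil, four seeds per pot, planted at a depth equal to the seed diameter and watered by sub-irrigation. At the stage of expanded cotyledons with the first true leaf 1' long, plants were sprayed post-emergence in a hood with a fixed nozzle over a moving belt. Percent control was rated visually two weeks later.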

[6] = system: Corn (CN); test: Post-emergence herbicide test; format: in vivo; settings: Zea mays, 336 h, two weeks after treatment; for pest or weed control at 4483.4 g/ha: 4 lb/acre
Outline: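 Greenhouse seedlings grown in potting soil and sprayed post-emergence at 8 lbs compound/acre (formulations also made for 4 lbs/acre) in 38 gallons/acre spray volume. Watering by sub-irrigation only. Injury or control rated visually two weeks after treatment.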

[7] = system: Yellow foxtail grass (YF); test: Post-emergence herbicide test; format: in vivo, Setaria glauca; settings: Setaria, 336 h, 4 lb/acre, two weeks after treatment
Protocol: Yellow foxtail grass (YF)--Setaria glauca
(§1) All crop and weed species were planted individually in 3' plastic pots containing potting soil. Four seeds each of corn, cotton, and snapbeans were seeded to a depth equal to the diameter of the seed. All other species were surface seeded and sprinkled with screened soil in an amount sufficient to cover the seed. Immediately after planting, all pots were watered by sub-irrigation in greenhouse trays. Pots for the pre-emergence phase were seeded one day before treatment.
(§2) Planting dates for the post-emergence phase were varied so that all seedlings would reach the desired stage of development simultaneously. The proper stage of seedling development for treatment in the post-emergence phase is as follows:
(§3) Compounds were tested at rates of application equivalent to 8 lbs. of actual compound per acre in a spray volume of 38 gallons per acre. Spray hood constants required to deliver the above volume are as follows:
(§4) Formulations for spray applications were prepared in 50 ml volumes with the following three components:
(§5) Formulations for the 4 lbs/acre rate were prepared by adjusting the amount of active ingredient accordingly.
(§6) Spray applications were made in a hood containing a removable belt and fixed spray nozzle. For passage through the spray hood, one pot of each specie (pre-emergence phase) was placed on the rear half of the flat. Treatments were removed to the greenhouse after spraying. Watering during the observation period was done only by sub-irrigation.
(§7) Two weeks after treatment, pre- and post-emergence injury or control was visually rated, and the results were as shown in the following tables. Pre-emergence data are provided in TABLE III and post-emergence data are provided in TABLE IV, for compounds having the formula illustrated in TABLE I. Correspondingly, pre-emergence and post-emergence data, respectively, are set forth in TABLES V AND VI, for compounds having the formula illustrated in TABLE II.

[8] = system: Johnson grass (JG); test: Post-emergence herbicide test; format: in vivo, Sorgum helepense; settings: Sorghum halepense, 336 h, two weeks after treatment; for pest or weed control at 4483.4 g/ha: 4 lb/acre
Outline: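 Greenhouse pot-grown seedlings sprayed post-emergence at 8 lbs compound per acre (some at 4 lbs/acre) in 38 gallons per acre spray volume. Sub-irrigated thereafter. Injury/control rated visually two weeks after treatment.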

[9] = system: Amaranth pigweed (PW); test: Pre-emergence herbicide test; format: in vivo, Amaranthus retroflexus; settings: 336 h, two weeks after treatment
Outline: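 Pigweed was surface-seeded in potted soil one day before spraying at 8 lbs compound per acre, or 4 lbs/acre, in 38 gallons per acre. Pots were kept in the greenhouse with sub-irrigation only; injury or control was rated visually two weeks after treatment.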

[10] = system: Bean (BN); test: Pre-emergence herbicide test; format: in vivo, Phaseolus vulgaris var. Black Valentine; settings: Phaseolus vulgaris, 336 h, two weeks after treatment
Outline: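 Black Valentine bean was seeded in potting soil one day before spraying. Compound was applied pre-emergence at 8 lbs/acre (also 4 lbs/acre) in 38 gallons per acre. Plants were sub-irrigated and injury or control was rated visually after two weeks.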

[11] = system: Cotton (CT); test: Pre-emergence herbicide test; format: in vivo, Gossypium hirsutum var. DPL smooth leaf; settings: Gossypium hirsutum, 336 h, two weeks after treatment
Outline: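 Crop and weed species seeded one day before treatment, then sprayed pre-emergence at 8 lbs actual compound per acre (also 4 lbs/acre formulations) in 38 gallons per acre. Pots kept in greenhouse with sub-irrigation only; injury or control visually rated two weeks after treatment.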

[12] = system: Corn (CN); test: Pre-emergence herbicide test; format: in vivo; settings: Zea mays, 336 h, two weeks after treatment
Outline: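 Four corn seeds per pot, sown at seed-diameter depth one day before spraying, got soil surface treatment at 8 lbs/acre (4 lbs/acre formulations also prepared) in 38 gallons/acre. Pots were greenhouse-held with sub-irrigation only. Injury or control was scored visually two weeks after treatment.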

[13] = system: Johnson grass (JG); test: Pre-emergence herbicide test; format: in vivo, Sorgum helepense; settings: Sorghum halepense, 336 h, two weeks after treatment
Outline: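 Pots seeded one day before spraying; compound applied pre-emergence at 8 lbs/acre (or 4 lbs/acre) in 38 gallons/acre spray volume. Sub-irrigated in greenhouse; injury/control rated visually two weeks after treatment.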

[14] = system: Turnip (TP); test: Pre-emergence herbicide test; format: in vivo, Brassica sp.; settings: Brassica rapa, pre-emergence, 336 h, two weeks after treatment
Outline: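 Turnip (Brassica sp.) seeds were surface sown in 3' plastic pots of potting soil, covered with a thin layer of screened soil, and sub-irrigated in greenhouse trays. Pots were seeded one day ahead of treatment, sprayed pre-emergence under a hood with a fixed nozzle and moving belt, then kept in the greenhouse.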

[15] = system: Crabgrass (CG); test: Pre-emergence herbicide test; format: in vivo, Digitaria sanquinalis; settings: Digitaria sanguinalis, pre-emergence, 336 h, two weeks after treatment
Outline: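 Crabgrass (Digitaria sanquinalis) was surface seeded in 3' plastic pots of potting soil, covered with screened soil, and watered by sub-irrigation in greenhouse trays. Pots were seeded one day before spraying in a hood with a moving belt and fixed nozzle. Plants stayed in the greenhouse on sub-irrigation, and pre-emergence control was rated visually two weeks after treatment.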

[16] = system: Barnyard grass (BG); test: Pre-emergence herbicide test; format: in vivo; settings: Echinochloa crus-galli, 336 h, 2 lb/acre, two weeks after treatment
Outline: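 Barnyard grass surface-seeded in potting soil and sprayed pre-emergence one day after seeding, at 8 or 4 lb compound/acre in 38 gal/acre spray volume. Pots kept in greenhouse with sub-irrigation only; injury or control rated visually two weeks after treatment.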

[17] = system: Amaranth pigweed (PW); test: Post-emergence herbicide test; format: in vivo, Amaranthus retroflexus; settings: 336 h, two weeks after treatment
Protocol: Amaranth pigweed (PW)--Amaranthus retroflexus
as §1, §2
Pigweed and turnips: 1 or 2 true leaves above visible cotyledons.
as §3, §4, §5, §6, §7

CCC(C)Sc1nnc(NC(=O)NC)s1 (centres unmarked) [Example 48]
pest or weed control at 4483.4 g/ha [1]: 70% | pest or weed control at 4483.4 g/ha [2]: 50% | pest or weed control at 4483.4 g/ha ([3]; 4 lb/acre): 40% | pest or weed control at 4483.4 g/ha [4]: 70% | pest or weed control at 4483.4 g/ha [5]: 100% | pest or weed control at 4483.4 g/ha [6]: 30% | pest or weed control at 4483.4 g/ha [7]: 30% | pest or weed control at 4483.4 g/ha [8]: 60%

CNC(=O)Nc1nnc(C(F)(F)C(F)(F)F)s1 [Example 68]
pest or weed control at 2241.7 g/ha ([1]; 2 lb/acre): 100% | pest or weed control at 4483.4 g/ha [1]: 100% | pest or weed control at 2241.7 g/ha ([2]; 2 lb/acre): 90% | pest or weed control at 4483.4 g/ha [2]: 100% | pest or weed control at 2241.7 g/ha ([3]; 2 lb/acre): 60% | pest or weed control at 2241.7 g/ha ([9]; 2 lb/acre): 100% | pest or weed control at 4483.4 g/ha ([9]; 4 lb/acre): 100% | pest or weed control at 2241.7 g/ha ([10]; 2 lb/acre): 0% | pest or weed control at 4483.4 g/ha ([10]; 4 lb/acre): 100% | pest or weed control ([4]; 2 lb/acre): 90% | pest or weed control at 4483.4 g/ha [4]: 100% | pest or weed control at 2241.7 g/ha ([11]; 2 lb/acre): 60% | pest or weed control at 4483.4 g/ha ([11]; 4 lb/acre): 90% | pest or weed control at 2241.7 g/ha ([12]; 2 lb/acre): 30% | pest or weed control at 4483.4 g/ha ([12]; 4 lb/acre): 50% | pest or weed control at 2241.7 g/ha ([13]; 2 lb/acre): 20% | pest or weed control at 4483.4 g/ha ([13]; 4 lb/acre): 30% | pest or weed control at 2241.7 g/ha ([14]; 2 lb/acre): 60% | pest or weed control at 4483.4 g/ha ([14]; 4 lb/acre): 60% | pest or weed control ([15]; 2 lb/acre): 50% | pest or weed control at 4483.4 g/ha ([15]; 4 lb/acre): 90% | pest or weed control at 2241.7 g/ha ([5]; 2 lb/acre): 80% | pest or weed control at 4483.4 g/ha [5]: 100% | pest or weed control at 2241.7 g/ha [16]: 30% | pest or weed control ([6]; 2 lb/acre): 50% | pest or weed control at 4483.4 g/ha [6]: 100% | pest or weed control at 2241.7 g/ha ([17]; 2 lb/acre): 100% | pest or weed control at 4483.4 g/ha ([17]; 4 lb/acre): 100% | pest or weed control ([8]; 2 lb/acre): 80% | pest or weed control at 4483.4 g/ha [8]: 80%

— US4175081A, “5-Substituted thiadiazole ureas” (priority 1977, dated 1979)
